Converted amounts (≈) assume the structure as drawn.
Key:
Solubility in water = conditions: for solubility: water
[1] = Solubility in water in the presence of excess toluene; assay type: physicochemical; conditions: excess of toluene added to the aqueous phase; relative to 3.2 mg/ml in water
Protocol: The suspension obtained upon cooling a neutralization of reaction mixture was concentrated to 600 ml and dialyzed for 7 h at room temperature. The retained suspension (.intg.700 ml) was stirred with toluene (10 ml) for 14 h, water (500 ml) was added, stirred for 15 min, and filtered. The residue was suspended in water (1.25 L), stirred for 1 h, and filtered. The combined filtrates were concentrated to 200 ml, refrigerated overnight, the sclid was collected by filtration, and recrystallized from hot water to yield white crystals of the product. Rf 0.25 (1-propanol-water-ethyl acetate-ammonium hydroxide, 6:3:1:1), FIG. 1. M.P. 292°-293° C. MS (FAB+) m/e 1193.2 (M+H^+), 1210.3 (M+H2 O). MS (FAB-) m/e 1191.1 (M-H^+), 1210.2 (M+H2 O). MS (^252 Cf) m/e 1215.8 (M+Na^+). ^1 H-NMR (D2 O) δ5.30-5.23 and 5.17- 5.05 (m, 7H, H-1), 4.16-3.40 (m, 45H), 1.17 (d, J=6.42, 3H, CH3). Anal. for C45 H76 O36 ·3H2 O; calcd. C 43.30, H 6.58; found C 43.31, H 6.43.

| Molecule | solubility (Solubility in water) | also measured |
| --- | --- | --- |
| CC(O)CO[C@H]1[C@H]2O[C@H]3[C@H](O)[C@@H](O)[C@@H](O[C@H]4[C@H](O)[C@@H](O)[C@@H](O[C@H]5[C@H](O)[C@@H](O)[C@@H](O[C@H]6[C@H](O)[C@@H](O)[C@@H](O[C@H]7[C@H](O)[C@@H](O)[C@@H](O[C@H]8[C@H](O)[C@@H](O)[C@@H](O[C@@H]([C@@H]1O)[C@@H](CO)O2)O[C@@H]8CO)O[C@@H]7CO)O[C@@H]6CO)O[C@@H]5CO)O[C@@H]4CO)O[C@@H]3CO (stereo partly drawn) [2-O-[(RS)-2'-Hydroxypropyl]-β-cyclodextrin] | 4000 µg/mL (≈ 3.35 mM) |  |
| CC(O)CO[C@H]1[C@H]2O[C@H]3[C@H](O)[C@@H](O)[C@@H](O[C@H]4[C@H](O)[C@@H](O)[C@@H](O[C@H]5[C@H](O)[C@@H](O)[C@@H](O[C@H]6[C@H](O)[C@@H](O)[C@@H](O[C@H]7[C@H](O)[C@@H](O)[C@@H](O[C@H]8[C@H](O)[C@@H](O)[C@@H](O[C@@H]([C@@H]1O)[C@@H](CO)O2)O[C@@H]8CO)O[C@@H]7CO)O[C@@H]6CO)O[C@@H]5CO)O[C@@H]4CO)O[C@@H]3CO (stereo partly drawn) [2-O-(2-hydroxypropyl)-β-cyclodextrin] |  | solubility (qualitative) (Solubility in water; inferred as probable reason for easy isolation): very low solubility |
| Mono[(S)-2-Hydroxypropyl]-α-Cyclodextrin |  | solubility in water: > 50% |
| C[C@@H](O)CO[C@H]1[C@H]2O[C@H]3[C@H](O)[C@@H](O)[C@@H](O[C@H]4[C@H](O)[C@@H](O)[C@@H](O[C@H]5[C@H](O)[C@@H](O)[C@@H](O[C@H]6[C@H](O)[C@@H](O)[C@@H](O[C@H]7[C@H](O)[C@@H](O)[C@@H](O[C@H]8[C@H](O)[C@@H](O)[C@@H](O[C@@H]([C@@H]1O)[C@@H](CO)O2)O[C@@H]8CO)O[C@@H]7CO)O[C@@H]6CO)O[C@@H]5CO)O[C@@H]4CO)O[C@@H]3CO [2-O-[(R)-2'-Hydoxypropy]-β-cyclodextrin] | 7500 µg/mL (≈ 6.29 mM) |  |

More lines, main results first:

| solubility (Solubility in water) | Molecule | also measured |
| --- | --- | --- |
| 12000 µg/mL (≈ 9.93 mM) | OC[C@H](O)CO[C@H]1[C@H]2O[C@H]3[C@H](O)[C@@H](O)[C@@H](O[C@H]4[C@H](O)[C@@H](O)[C@@H](O[C@H]5[C@H](O)[C@@H](O)[C@@H](O[C@H]6[C@H](O)[C@@H](O)[C@@H](O[C@H]7[C@H](O)[C@@H](O)[C@@H](O[C@H]8[C@H](O)[C@@H](O)[C@@H](O[C@@H]([C@@H]1O)[C@@H](CO)O2)O[C@@H]8CO)O[C@@H]7CO)O[C@@H]6CO)O[C@@H]5CO)O[C@@H]4CO)O[C@@H]3CO [2-O-[(S)-2', 3'-Dihydroxypropyl-β-cyclodextrin] |  |
| 3200 µg/mL (≈ 2.68 mM) | C[C@H](O)CO[C@H]1[C@H]2O[C@H]3[C@H](O)[C@@H](O)[C@@H](O[C@H]4[C@H](O)[C@@H](O)[C@@H](O[C@H]5[C@H](O)[C@@H](O)[C@@H](O[C@H]6[C@H](O)[C@@H](O)[C@@H](O[C@H]7[C@H](O)[C@@H](O)[C@@H](O[C@H]8[C@H](O)[C@@H](O)[C@@H](O[C@@H]([C@@H]1O)[C@@H](CO)O2)O[C@@H]8CO)O[C@@H]7CO)O[C@@H]6CO)O[C@@H]5CO)O[C@@H]4CO)O[C@@H]3CO [2-O-[(S)-2'-Hydroxypropyl]-β-cyclodextrin] | solubility in water with excess of toluene added [1]: only insignificantly changed |

Source: US5173481A, “Preparation of specifically substituted cyclodextrins” (The United States of America as represented by the …, priority 1990, dated 1992)
